The target in data set [1] is T1, CMKLR1 (Homo sapiens, UniProt Q99788).
T1 construct: host or cells: CHO-K1 (PathHunter CMKLR1 β-Arrestin cells)
T1 sequence (Q99788 1-373): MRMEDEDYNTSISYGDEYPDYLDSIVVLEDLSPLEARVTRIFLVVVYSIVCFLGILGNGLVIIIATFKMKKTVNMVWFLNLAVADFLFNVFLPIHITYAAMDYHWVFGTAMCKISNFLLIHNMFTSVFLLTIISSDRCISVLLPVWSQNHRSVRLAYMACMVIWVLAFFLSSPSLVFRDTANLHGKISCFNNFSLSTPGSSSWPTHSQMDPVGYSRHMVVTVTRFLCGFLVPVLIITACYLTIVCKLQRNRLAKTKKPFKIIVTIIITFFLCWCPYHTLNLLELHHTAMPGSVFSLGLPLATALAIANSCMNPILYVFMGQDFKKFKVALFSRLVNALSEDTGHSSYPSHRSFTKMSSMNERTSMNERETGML
The data set is described as follows: β-arrestin recruitment assay (chemerin-dependent β-arrestin2 signaling). The following applies: CMKLR1-CHO-β-Arrestin cells, 20 nM chemerin, read-out: β-arrestin IC50 mean ± SEM (n). The data set is classed as cell-based. The protocol: DiscoverX PathHunter® CHO-K1 CMKLR1 β-Arrestin Cells were grown in RPMI lacking phenol red (Gibco, Life Technologies), supplemented with L-glutamine, penicillin-streptomycin, sodium pyruvate, non-essential amino acid, BCS, hygromycin, and G418-sulfate. CMKLR1-CHO-β-Arrestin cells were seeded in 96 well plates at 1 × 10^5 cell/ml- 100 ul/well and incubated overnight at 37 °C, 5% CO2. […] (α-NETA and test compounds were reconstituted in DMSO; final DMSO concentration in each well was 0.1%). After 10 min, 5 ul of recombinant human chemerin (R&D Systems) at a final concentration of 20 nM was added to each well. Plates were incubated for 90 min at 37 °C, 5% CO2. Media was then removed and 50 ul of chemiluminescent substrate (Tropix Gal-Screen, Applied Biosciences) was added. The plate was incubated for 1 hr at RT and luminescence was detected using the SpectraMax M5 plate reader (Molecular Devices). For each independent trial (single replicate dose curves), data was normalized to the maximum signal per compound tested and an IC50 value was generated using GraphPad Prism software. The average IC50 value for n independent trials (as specified in the table) is reported.

The subject of data set [2] is C57BL/6 mice with EAE. The data set is described as follows: Experimental autoimmune encephalomyelitis (EAE), MOG35–55/CFA immunization. The data set is classed as in vivo, mouse. The protocol: C57BL/6 mice were purchased from The Jackson Laboratory. […] Animal experiments were conducted in accordance with approved Veterans Affairs, National Institutes of Health, and Institutional Animal Care and Use Committee guidelines.
CFA consisted of 5 mg/ml mTB (Mycobacterium-tuberculosis H37 Ra, BD Difco) in IFA (Incomplete Freund’s Adjuvant, Sigma). MOG35–55 was reconstituted at 2 mg/ml in PBS. Mice also received 200 ng pertussis toxin (List Biological Laboratories, Inc) by i.p. injection at the time of immunization and two days later. […] For a direct comparison to α-NETA, the DMF and compound doses were also 10 mg/kg in 10% captisol. Mice were monitored daily for clinical disease and scored (0 = normal/healthy, 1 = limp tail, 2 = hindlimb weakness, 3 = hindlimb paralysis, 4 = hindlimb and forelimb paralysis, 5 = moribund/dead).

Data set [3] has as its target T2, CYP3A4 (Homo sapiens, UniProt P08684).
T2 construct: tissue Cyprotex/Evotec AG; host or cells: human liver microsomes
As to the kind of experiment: Cyp enzyme inhibition in human liver microsomes. The data set is classed as in vitro ADME.

The test system of data set [4] is Cyp enzymes. The data set is described as follows: Time-dependent (mechanism-based) Cyp inhibition. The data set is classed as in vitro ADME, human. The following applies: not shown. Here is the method:
Human liver microsomes were pre-incubated with 7 concentrations (0.1–100 mM, duplicate wells) of α-NETA for 30 min.

Data set [5] can be described thus: Repeat dosing toxicity, 14 days. The conditions noted are these: C57BL/6, mouse, in vivo, po; repeated dosing p.o. for up to 14 days; read-out: no-observable-adverse-effect-level (NOAEL).
Description: Mouse survival was monitored and body weight was measured daily for the length of the study. On day 14 the mice were euthanized and the wet weight for the following tissues: kidney, brain, spleen, liver, heart, and lung, was recorded.
The test system of data set [6] is Cyp3A4. Also noted: method as in PMID 25437209. The following applies: substrate luciferin-6′ phenylpiperazinylyl; PubChem; cited from earlier work.

SMILES strings stand for the structures. Read-outs that look alike come from different tables or passages of the source.

T2 sequence (P08684 whole entry): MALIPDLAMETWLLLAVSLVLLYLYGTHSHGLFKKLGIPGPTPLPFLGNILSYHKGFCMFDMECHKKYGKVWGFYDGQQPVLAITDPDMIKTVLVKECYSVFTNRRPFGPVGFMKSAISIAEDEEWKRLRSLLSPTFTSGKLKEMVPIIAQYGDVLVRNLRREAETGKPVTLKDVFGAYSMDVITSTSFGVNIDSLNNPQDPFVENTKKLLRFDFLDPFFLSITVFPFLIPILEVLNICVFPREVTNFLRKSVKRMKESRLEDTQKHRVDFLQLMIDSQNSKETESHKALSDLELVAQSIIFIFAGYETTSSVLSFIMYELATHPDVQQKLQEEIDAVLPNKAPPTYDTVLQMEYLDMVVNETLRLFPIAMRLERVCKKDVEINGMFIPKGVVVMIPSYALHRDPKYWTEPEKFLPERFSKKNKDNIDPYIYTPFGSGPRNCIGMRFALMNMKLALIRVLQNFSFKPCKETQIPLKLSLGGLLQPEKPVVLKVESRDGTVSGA

In the case of `C[N+](C)(C)CCC(=O)c1cccc2ccccc12.[I-]` [α-NETA, 2-(α-naphthoyl) ethyltrimethylammonium iodide], the IC50 in data set [1] (Table 2 tertiary amines) is 4.9 ± 1.5 µM; in data set [1] (Table 3 quaternary ammonium salts), 4.9 ± 1.5 µM; in data set [3] (human, liver microsomes, probe midazolam, substrate Midazolam), 7.4 µM; in data set [3] (substrate Midazolam) it was 7.5 µM; in data set [3] (substrate testosterone) it was 6.9 µM; in data set [6], 0.2 µM. Besides, the “day of EAE onset (mean ± SEM)” value in data set [2] (Fig. 1 study, 10 mg/kg daily in 10% captisol, s.c., d29 onset assumed for 2 α-NETA mice) came out at 21 ± 2 days. Besides, the “Day of onset (Mean ± SEM)” value in data set [2] (Table 4, 10 mg/kg daily to D21, n = 8) came to 14.4 ± 0.6. In addition, the “Maximum Score (Mean ± SEM)” value in data set [2] (Table 4, 10 mg/kg daily to D21, n = 8, clinical score 0-5) was 2.6 ± 0.2. In data set [2] (Table 4, 10 mg/kg daily to D21, n = 8, mean clinical score x day), the “AUC (Mean ± SEM) of clinical score” value worked out at 31.9 ± 4.0. For the same compound, the “time-dependent (mechanism-based) Cyp inhibition” value in data set [4] is given as “No time-dependent (mechanism-based) Cyp inhibition was detected”. In addition, the NOAEL at 14 days in data set [5] is no less than 300 mg/kg.

The values above are taken from paper PMC6509344, “Novel CMKLR1 Inhibitors for Application in Demyelinating Disease” (Scientific Reports, 2019).
